Test results as given in article PMC8667948, “Mechanism of biotin carboxylase inhibition by ethyl 4-[[2-chloro-5-(phenylcarbamoyl)phenyl]sulphonylamino]benzoate” (Journal of Enzyme Inhibition and Medicinal Chemistry, 2021).
Where two headings read alike, the source gives them in different places.

What was measured:
BC = test system: BC; set-up: method as in PMID 4922289; settings: % activity of biotin; cited from earlier work
biotin carboxylase (BC) [1] = molecular target: T1, biotin carboxylase (BC) (Escherichia coli, UniProt P24182); assay: Biotin carboxylase inhibition assay, ATP or biotin varied (pyruvate kinase/lactic dehydrogenase coupled); type: biochemical; settings: SABA1 0, 75, 150 µM
T1 construct: His tag (N); made in house
Experimental: (§1) For inhibition studies that varied ATP or biotin, initial velocities were measured as previously reported. In brief, pyruvate kinase and lactic dehydrogenase were used to couple ADP production to NADH oxidation, which can be measured spectrophotometrically at 340 nm. For inhibition studies varying ADP, activity was determined by following the production of inorganic phosphate (Pi) using the EnzChek® Phosphate Assay Kit (Molecular Probes) according to the manufacturer’s protocol. In brief, purine nucleoside phosphorylase converts 2-amino-6-mercapto-7-methylpurine riboside to ribose 1-phosphate and 2-amino-6-mercapto-7-methylpurine in the presence of Pi. This reaction is monitored at […][32]. Kinetic data were collected on a Cary60 UV-Vis spectrophotometer (Agilent Technologies)
To determine the inhibition pattern versus ATP, ATP was varied from 0.05 mM to 1.0 mM. SABA1 was held at fixed concentrations of 0.0 µM, 75 µM, or 150 µM. Biotin was held constant at 40 mM. […]
Data for inhibition studies varying ATP or biotin were analysed by nonlinear regression using the programs of Cleland[33]. Competitive inhibition data were fitted to Equation (1) where v is the experimentally determined velocity, V is maximal velocity, A is substrate concentration, Km is the Michaelis constant, I is inhibitor concentration and Kis is the inhibition constant for the slope. […]

biotin carboxylase (BC) [2] = molecular target: T1, biotin carboxylase (BC); assay: Biotin carboxylase inhibition versus ADP (EnzChek Pi assay); type: biochemical; settings: ADP varied 0.19-19 µM; ATP 0.6 mM; biotin 40 mM; SABA1 100 µM; fit to Equation (5)
Experimental: as §1
To determine the inhibition pattern versus ADP using the Pi assay, ADP was varied from 0.19 µM to 19 µM. ATP was held constant at 0.6 mM, biotin was held constant 40 mM, and SABA1 was held constant at 100 µM. Each reaction cocktail was incubated in the presence or absence of SABA1 for 10 min. The reaction was started by addition of biotin.
Data for inhibition studies varying ADP were analysed by nonlinear regression using the program Enzfitter[34]. […]

biotin carboxylase (BC) [3] = molecular target: T1, biotin carboxylase (BC); assay: Multiple inhibition assay (Yonetani-Theorell) on BC; type: biochemical; settings: aminooxazole varied 0.2-3.2 µM at fixed SABA1 0, 75, 150 µM; ATP 0.2 mM, biotin 40 mM; intersecting pattern
Experimental: To determine the multiple inhibition pattern with respect to ATP, aminooxazole was varied from 0.2 µM to 3.2 µM. SABA1 was held at fixed concentrations of 0.0 µM, 75 µM, or 150 µM. ATP and biotin were held constant at 0.2 mM and 40 mM, respectively. To determine the multiple inhibition pattern with respect to biotin, desthiobiotin was varied from 1.0 mM to 20 mM. SABA1 was held at fixed concentrations of 0.0 µM, 75 µM, or 150 µM. ATP and biotin were held constant at 0.2 mM and 40 mM, respectively.
Multiple inhibition data were fitted to Equation (3) where v is the experimentally determined velocity, V is maximal velocity, L and J are the concentration of the two inhibitors, KL and KJ are the apparent inhibition constants of those respective inhibitors, and α is the interaction factor of the two inhibitors. (3) v=V/1+L/KL+J/KJ+LJ/αKLKJ
Competitive inhibition means that binding of the inhibitor and the substrate to the enzyme are mutually exclusive. […] To determine if SABA1 can bind in the ATP binding site, biotin binding site or both, multiple inhibition analysis was performed as described by Yonetani and Theorell[42]. Multiple inhibition analysis is used to define the topological relationship between two different enzyme inhibitors. Initial velocities are measured while one inhibitor is varied against fixed increasing concentrations of the second inhibitor. […]

[4] = molecular target: T2, Acetyl-CoA carboxylase (ACC) (Escherichia coli, UniProt P24182); assay: ACC assay, ATP varied (BC:BCCP:CT 1:2:1); type: biochemical; settings: ATP varied 1.0-16 µM, acetyl-CoA 0.20 mM, SABA1 0, 50, 100 µM
T2 construct: His tag (N); made in house
Experimental: As stated above, the components of ACC were purified separately. Purified BC, BCCP, and CT were combined in a 1:2:1 molar ratio and allowed to equilibrate for 1 h prior to assaying ACC. To determine the inhibition pattern versus ATP, ATP was varied from 1.0 µM to 16 µM. SABA1 was held at fixed concentrations of 0.0 µM, 50 µM, or 100 µM. Acetyl-CoA was held constant at 0.20 mM. The reaction was started by the addition of enzyme.
Non-competitive inhibition data were fitted to Equation (2) where v is the experimentally determined velocity, V is maximal velocity, A is substrate concentration, Km is the Michaelis constant, I is inhibitor concentration and Kii is the inhibition constant for the intercept and Kis is the inhibition constant for the slope. (2) v=VA/Km(1+I/Kis)+A(1+I/Kii)

[5] = test system: efflux compromised E. coli (ΔtolC::tet); settings: cited from earlier work
[6] = test system: efflux compromised P. aeruginosa strain PAO397; set-up: method as in PMID 26169404; settings: cited from earlier work
E. coli ACC = test system: E. coli ACC; set-up: method as in PMID 26169404; settings: cited from earlier work

| Structure (SMILES) | activity as slow alternate substrate, relative to biotin (BC) [%] | Ki (biotin carboxylase (BC) [1]; ATP varied 0.05-1.0 mM, biotin constant 40 mM (subsaturating), read-out: Kis, competitive inhibition versus ATP) [µM] | Ki (biotin carboxylase (BC) [1]; biotin varied 20-200 mM, ATP constant 0.2 mM (subsaturating), read-out: Kis, competitive inhibition versus biotin) [µM] | Ki, uncompetitive inhibition versus ADP (biotin carboxylase (BC) [2]) [µM] | α value (interaction factor of the two inhibitors) (biotin carboxylase (BC) [3]) | Ki ([4]; read-out: Kii, non-competitive inhibition versus ATP) [µM] | Ki ([4]; read-out: Kis, non-competitive inhibition versus ATP) [µM] | MIC [5] [µM] | prolongs the doubling time [6] [%] | IC50 (E. coli ACC) [µM] |
| --- | --- | --- | --- | --- | --- | --- | --- | --- | --- | --- |
| C[C@@H]1NC(=O)N[C@@H]1CCCCCC(=O)O [Desthiobiotin] | 0.2 | – | – | – | – | – | – | – | – | – |
| CCOC(=O)c1ccc(NS(=O)(=O)c2cc(C(=O)Nc3ccccc3)ccc2Cl)cc1 [SABA1, ethyl 4-[[2-chloro-5-(phenylcarbamoyl)phenyl]sulfonylamino]benzoate] | – | 242 ± 32 | 142 ± 12.3 | 10.3 ± 0.1 | 0.6 | 23.3 ± 4.4 | 96.3 ± 31.6 | 0.45 to 0.9 | 30 | 4 |
